Assay results from patent US20200002354A1, “HEXAHYDROPYRAZINOBENZ- OR -PYRIDO-OXAZEPINES CARRYING AN OXYGEN-CONTAINING SUBSTITUENT AND USE THEREOF IN THE TREATMENT OF 5-HT2C-DEPENDENT DISORDERS” (AbbVie Deutschland GmbH & Co. KG, priority 2015, published 2020).
Where two headings read alike, the source gives them in different places.

How the values were obtained:
human 5-HT2B receptor = target: T1, human 5-HT2B receptor (Homo sapiens, UniProt P41595); assay: Human 5-HT2B functional assay (calcium mobilisation in CHO-FlpIn cells, FLIPR); assay type: cell-based; settings: based on agonism: EC50 5-HT2B/EC50 5-HT2C
T1 construct: expressed in transfected cells; host or cells: CHO-FlpIn
Procedure: 3. Human 5-HT2B Functional Assay
Functional activity on the 5-HT2B receptor was determined by testing the effect of the compounds I on calcium mobilisation in CHO-FlpIn cells, stably transfected with human 5-HT2B receptor. Cells were seeded into sterile black 384-well plates with clear bottom at 30,000 cells/well in a volume of 25 μl and grown overnight at 37° C., in 5% CO2 in tissue culture medium (“CHO-S-SFM II” by Invitrogen), containing 1% dialysed FCS and 50 μg/ml gentamicin (Invitrogen). On the next morning, medium was replaced by a serum free version of the same tissue culture medium for a further incubation for 4 hours at 37° C. and in 5% CO2. Cells were then loaded with a fluorescent calcium-sensitive dye in the presence of 0.07% probenecid for an hour at 37° C., according to the manufacturer's protocol (Ca5-Assay Kit, Molecular Devices), followed by an additional 60 min incubation at room temperature. Serial compound dilutions (final concentrations of 10^−10 to 10^−5M, prepared in HBSS+50 mM HEPES) were first added to the cells alone (“first addition” to assess agonism on the 5-HT2B receptor), then after 8 min, serotonin was added to the same wells at a final concentration of 10^−8 M (“second addition” to see potential antagonistic effect) and the maximal calcium response was determined using a FLIPR® Tetra instrument (Molecular Devices) in each of the two steps. The relative efficacy of the compounds was calculated as a percentage of the maximal effect induced by serotonin alone (defined as 100%). To determine EC50/IC50 values, concentration-response curves were fitted using a four-parameter logistic equation (IDBS Biobookml). Kb values were calculated from IC50 values, according to Cheng & Prusoff

[1] = Metabolic stability in human liver microsomes, unbound intrinsic clearance; assay type: in vitro ADME; settings: pH 7.4
Procedure: Samples of the tested compounds (0.5 μM) were preincubated together with human liver microsomes (0.25 mg of microsomal protein/mL) in 0.05 M potassium phosphate buffer of pH 7.4 in microtiter plates at 37° C. for 5 minutes. The reaction was started by adding NADPH (1.0 mM). After 0, 5, 10, 15, 20 and 30 minutes, an aliquot was removed, the reaction was cooled and stopped by adding twice the amount of quench solution consisting of acetonitrile/methanol 1:1, and containing 0.2 μM carbutamide as internal standard. The samples were frozen until analyzed. The remaining concentration of undegraded test substance was determined by liquid chromatography-tandem mass spectrometry (LC-MS/MS). The half-life (t1/2) was determined from the gradient of the ratio of the signal of (test substance/internal standard)/unit time plot, allowing the calculation of the half-life of the test substance, assuming first order kinetics, from the decrease in the concentration of the compound with time. The microsomal clearance (mClint) was calculated as follows: mClint=((ln(2)/t ½)/Microsomal Protein Concentration (mg/ml))*1000, leading to the unit of uL/min/mg. The scaled clearance (mClin_scaled) was calculated as mCLint_scaled=m CLint*(Microsomal Yield (mg/kg BW))/1000000*60, leading to the units L/h/kg. The Microsomal Yield is defined by the specifics of the used microsomes. Calculations were modified from references: Di, The Society for Biomolecular Screening, 2003, 453-462; Obach, D M D, 1999 vol 27. N 11, 1350-1359.
Calculation of Unbound Intrinsic Clearance
C1int unbound=C1 int/fu mic

5-HT2C receptor = target: T2, 5-HT2C receptor (Homo sapiens, UniProt P28335); assay: Human 5-HT2C functional assay (beta-arrestin2 recruitment, U2OS_HTR2C_β-Arrestin cells); assay type: cell-based; settings: for Emax: relative efficacy vs maximal effect induced by 5-HT (defined as 100%)
T2 construct: host or cells: U2OS
Procedure: 1. Human 5-HT2C Functional Assay
The functional activity of compounds of formula I was assayed by incubation with U2OS_HTR2C_β-Arrestin cells (DiscoverX, 93-0289C3) to induce beta-arrestin2 recruitment to the 5-HT2C receptor. The agonist-induced recruitment and proximity of the receptor and beta-arrestin2 leads to complementation and formation of active β-galactosidase. The enzyme complementation results in enzyme activity, which is measured following the termination of the agonist incubation using DiscoveRx's detection reagent, which contains a chemiluminescent substrate which produces a high intensity signal. Cells were plated and a medium-change to a 1% serum containing medium was performed 24 h later. The next day, test compounds were added and incubated for 1.5 h before addition of detection reagent.
The response produced was measured and compared with the response produced by 10 [mu]M 5-HT or the maximal effect induced by 5-HT (defined as 100%) to which it was expressed as a percentage response (relative efficacy).

human 5-HT2A receptor = target: T3, human 5-HT2A receptor (Homo sapiens, UniProt P28223); assay: Human 5-HT2A functional assay (calcium mobilisation in CHO-K1 cells, FLIPR); assay type: cell-based; settings: based on agonism: EC50 5-HT2A/EC50 5-HT2C
T3 construct: expressed in transfected cells; host or cells: CHO-K1
Procedure: 2. Human 5-HT2A Functional Assay
Functional activity on the 5-HT2A receptor was determined by testing the effect of the compounds I on calcium mobilisation in CHO-K1 cells, stably transfected with human 5-HT2A receptor. Cells were seeded into sterile black 384-well plates with clear bottom at 25,000 cells/well in a volume of 25 μl and grown for 5-6 hours at 37° C., in 5% CO2 in tissue culture medium (“Ultra CHO” by LONZA), containing 1% dialysed FCS and 50 μg/ml gentamicin (Invitrogen). After this incubation, medium was replaced by a serum free version of the same tissue culture medium followed by incubation overnight at 37° C. and in 5% CO2. Cells were then loaded with a fluorescent calcium-sensitive dye in the presence of 0.07% probenecid for an hour at 37° C., according to the manufacturer's protocol (Ca5-Assay Kit, Molecular Devices), followed by an additional 60 min incubation at room temperature. Serial compound dilutions (final concentrations of 10^−10 to 10^−5M, prepared in HBSS+50 mM HEPES) were first added to the cells alone (“first addition” to assess agonism on the 5-HT2A receptor), then after 8 min, serotonin was added to the same wells at a final concentration of 3×10^−8 M (“second addition” to see potential antagonistic effect) and the maximal calcium response was determined using a FLIPR® Tetra instrument (Molecular Devices) in each of the two steps. The relative efficacy of the compounds was calculated as a percentage of the maximal effect induced by serotonin alone (defined as 100%). To determine EC50/IC50 values, concentration-response curves were fitted using a four-parameter logistic equation (IDBS Biobookml). Kb values were calculated from IC50 values, according to Cheng & Prusoff

[2] = liver microsomes, unbound intrinsic clearance (human), Clint unbound = Cl int/fu mic, read-out: Cl int, mic unb. (h)
[3] = Potency (EC50 5-HT2C) in functional assay, agonism, read-out: EC50 5-HT2C

T1 sequence (P41595 whole entry): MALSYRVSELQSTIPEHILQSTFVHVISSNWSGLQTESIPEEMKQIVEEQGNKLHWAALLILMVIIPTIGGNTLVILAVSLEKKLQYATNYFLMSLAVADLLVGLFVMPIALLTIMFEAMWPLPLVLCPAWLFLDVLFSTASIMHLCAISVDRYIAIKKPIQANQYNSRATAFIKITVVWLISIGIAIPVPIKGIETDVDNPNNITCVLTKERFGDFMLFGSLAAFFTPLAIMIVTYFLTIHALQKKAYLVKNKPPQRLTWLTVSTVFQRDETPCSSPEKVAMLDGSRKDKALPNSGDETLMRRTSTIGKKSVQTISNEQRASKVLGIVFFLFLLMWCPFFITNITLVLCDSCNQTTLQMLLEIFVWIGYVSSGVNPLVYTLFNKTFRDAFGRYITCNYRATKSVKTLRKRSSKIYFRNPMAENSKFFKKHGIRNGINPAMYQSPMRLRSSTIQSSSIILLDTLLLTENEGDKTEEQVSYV
T2 sequence (P28335 33-458): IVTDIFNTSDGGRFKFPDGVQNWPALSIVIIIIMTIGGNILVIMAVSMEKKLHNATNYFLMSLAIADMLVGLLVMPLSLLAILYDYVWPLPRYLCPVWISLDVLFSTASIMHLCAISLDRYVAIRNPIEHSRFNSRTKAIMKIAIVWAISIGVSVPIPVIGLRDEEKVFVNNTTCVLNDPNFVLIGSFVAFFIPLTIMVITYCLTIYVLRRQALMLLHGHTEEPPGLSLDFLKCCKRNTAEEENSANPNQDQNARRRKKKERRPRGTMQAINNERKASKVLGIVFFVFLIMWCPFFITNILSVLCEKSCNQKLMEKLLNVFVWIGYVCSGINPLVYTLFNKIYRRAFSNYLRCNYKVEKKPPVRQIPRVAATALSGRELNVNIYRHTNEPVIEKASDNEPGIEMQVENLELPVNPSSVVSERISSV
T2 sequence (P32121 whole entry partner): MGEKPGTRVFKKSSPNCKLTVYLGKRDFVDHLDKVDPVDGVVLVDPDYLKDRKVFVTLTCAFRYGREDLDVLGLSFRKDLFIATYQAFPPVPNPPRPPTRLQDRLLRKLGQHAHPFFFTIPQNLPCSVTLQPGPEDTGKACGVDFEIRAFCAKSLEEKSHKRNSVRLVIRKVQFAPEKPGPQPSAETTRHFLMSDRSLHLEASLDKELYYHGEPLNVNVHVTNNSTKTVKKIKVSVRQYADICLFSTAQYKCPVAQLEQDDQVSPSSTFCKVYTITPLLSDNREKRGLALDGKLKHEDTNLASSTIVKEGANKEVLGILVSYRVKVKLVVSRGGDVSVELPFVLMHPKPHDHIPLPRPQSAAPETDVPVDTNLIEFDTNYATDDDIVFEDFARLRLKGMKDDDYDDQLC
T3 sequence (P28223 whole entry): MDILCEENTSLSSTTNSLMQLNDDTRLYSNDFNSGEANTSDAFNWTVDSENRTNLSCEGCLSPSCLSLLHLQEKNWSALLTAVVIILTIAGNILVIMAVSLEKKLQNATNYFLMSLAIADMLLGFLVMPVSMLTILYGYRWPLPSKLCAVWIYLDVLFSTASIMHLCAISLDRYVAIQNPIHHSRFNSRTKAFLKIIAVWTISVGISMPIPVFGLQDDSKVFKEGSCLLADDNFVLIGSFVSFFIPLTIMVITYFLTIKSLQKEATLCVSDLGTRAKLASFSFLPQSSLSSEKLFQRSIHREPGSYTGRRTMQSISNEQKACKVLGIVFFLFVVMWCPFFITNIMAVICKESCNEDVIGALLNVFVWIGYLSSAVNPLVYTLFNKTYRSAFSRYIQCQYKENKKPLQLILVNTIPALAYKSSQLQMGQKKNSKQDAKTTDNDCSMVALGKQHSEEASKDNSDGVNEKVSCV

SMILES: COC[C@H]1C[C@@H]2CNCCN2c2cccc(Cl)c2O1.O=C(O)C(F)(F)F [Example 2, (4aR,6R)-8-Chloro-6-(methoxymethyl)-2,3,4,4a,5,6-hexahydro-1H-pyrazino[2,1-d][1,5]benzoxazepine; 2,2,2-trifluoroacetic acid]
- Selectivity over 5-HT2B (human 5-HT2B receptor): +++ (>100)
- CLint scaled at 0.5 μM [1, 2]: < 83.3 mL/min/kg
- EC50 (5-HT2C receptor; [3]): 20 to 200 nM
- Emax (5-HT2C receptor): 50 to 70%
- Selectivity over 5-HT2A (human 5-HT2A receptor): +++ (>100)

SMILES: COC[C@@H]1C[C@@H]2CNCCN2c2ccccc2O1.O=C(O)C(F)(F)F [Example 3, (4aR,6S)-6-(Methoxymethyl)-2,3,4,4a,5,6-hexahydro-1H-pyrazino[2,1-d][1,5]benzoxazepine; 2,2,2-trifluoroacetic acid]
- Selectivity over 5-HT2B (human 5-HT2B receptor): + (from 10 to 30)
- CLint scaled at 0.5 μM ([1]; human, microsomes): < 83.3 mL/min/kg
- EC50 (5-HT2C receptor): 200 to 1000 nM
- Emax (5-HT2C receptor): 50 to 70%
- Selectivity over 5-HT2A (human 5-HT2A receptor): + (from 10 to 30)

SMILES: COC[C@@H]1C[C@@H]2CNCCN2c2ccc(F)c(Cl)c2O1.Cl [Example 5, (4aR,6S)-8-Chloro-9-fluoro-6-(methoxymethyl)-2,3,4,4a,5,6-hexahydro-1H-pyrazino[2,1-d][1,5]benzoxazepine hydrochloride]
- Selectivity over 5-HT2B (human 5-HT2B receptor): + (from 10 to 30)
- CLint scaled at 0.5 μM [1, 2]: < 83.3 mL/min/kg
- EC50 (5-HT2C receptor; [3]): < 20 nM
- Emax (5-HT2C receptor): > 70%
- Selectivity over 5-HT2A (human 5-HT2A receptor): +++ (>100)

SMILES: COC[C@@H]1C[C@@H]2CNCCN2c2cccc(C(F)F)c2O1.Cl [Example 6, (4aR,6S)-8-(Difluoromethyl)-6-(methoxymethyl)-2,3,4,4a,5,6-hexahydro-1H-pyrazino[2,1-d][1,5]benzoxazepine hydrochloride]
- Selectivity over 5-HT2B (human 5-HT2B receptor): ++ (from >30 to 100)
- CLint scaled at 0.5 μM [1, 2]: < 83.3 mL/min/kg
- EC50 (5-HT2C receptor; [3]): < 20 nM
- Emax (5-HT2C receptor): > 70%
- Selectivity over 5-HT2A (human 5-HT2A receptor): +++ (>100)

SMILES: COC[C@@H]1C[C@@H]2CNCCN2c2cc(F)cc(Cl)c2O1.Cl [Example 7, (4aR,6S)-8-Chloro-10-fluoro-6-(methoxymethyl)-2,3,4,4a,5,6-hexahydro-1H-pyrazino[2,1-d][1,5]benzoxazepine hydrochloride]
- Selectivity over 5-HT2B (human 5-HT2B receptor): +++ (>100)
- CLint scaled at 0.5 μM [1, 2]: < 83.3 mL/min/kg
- EC50 (5-HT2C receptor; [3]): < 20 nM
- Emax (5-HT2C receptor): > 70%
- Selectivity over 5-HT2A (human 5-HT2A receptor): +++ (>100)

SMILES: COC[C@@H]1C[C@@H]2CNCCN2c2cc(F)ccc2O1.Cl [Example 8, (4aR,6S)-10-Fluoro-6-(methoxymethyl)-2,3,4,4a,5,6-hexahydro-1H-pyrazino[2,1-d][1,5]benzoxazepine hydrochloride]
- Selectivity over 5-HT2B (human 5-HT2B receptor): +++ (>100)
- CLint scaled at 0.5 μM [1, 2]: < 83.3 mL/min/kg
- EC50 (5-HT2C receptor; [3]): 20 to 200 nM
- Emax (5-HT2C receptor): > 70%
- Selectivity over 5-HT2A (human 5-HT2A receptor): +++ (>100)

SMILES: COC[C@@H]1C[C@@H]2CNCCN2c2cc(F)cc(C(F)F)c2O1.Cl [Example 9, (4aR,6S)-8-(Difluoromethyl)-10-fluoro-6-(methoxymethyl)-2,3,4,4a,5,6-hexahydro-1H-pyrazino[2,1-d][1,5]benzoxazepine hydrochloride]
- Selectivity over 5-HT2B (human 5-HT2B receptor): +++ (>100)
- CLint scaled at 0.5 μM [1, 2]: < 83.3 mL/min/kg
- EC50 (5-HT2C receptor; [3]): < 20 nM
- Emax (5-HT2C receptor): > 70%
- Selectivity over 5-HT2A (human 5-HT2A receptor): +++ (>100)

SMILES: COC[C@@H]1C[C@@H]2CNCCN2c2cc(Cl)ccc2O1.Cl [Example 10, (4aR,6S)-10-Chloro-6-(methoxymethyl)-2,3,4,4a,5,6-hexahydro-1H-pyrazino[2,1-d][1,5]benzoxazepine hydrochloride]
- Selectivity over 5-HT2B (human 5-HT2B receptor): ++ (from >30 to 100)
- CLint scaled at 0.5 μM [1, 2]: 83.3 to 833 mL/min/kg
- EC50 (5-HT2C receptor; [3]): 20 to 200 nM
- Selectivity over 5-HT2A (human 5-HT2A receptor): ++ (from >30 to 100)

SMILES: COC[C@@H]1C[C@@H]2CNCCN2c2cc(F)cc(F)c2O1.Cl [Example 11, (4aR,6S)-8,10-Difluoro-6-(methoxymethyl)-2,3,4,4a,5,6-hexahydro-1H-pyrazino[2,1-d][1,5]benzoxazepine hydrochloride]
- Selectivity over 5-HT2B (human 5-HT2B receptor): ++ (from >30 to 100)
- CLint scaled at 0.5 μM [1, 2]: < 83.3 mL/min/kg
- EC50 (5-HT2C receptor; [3]): 20 to 200 nM
- Emax (5-HT2C receptor): > 70%
- Selectivity over 5-HT2A (human 5-HT2A receptor): +++ (>100)

SMILES: COC[C@@H]1C[C@@H]2CNCCN2c2cccc(C#N)c2O1.Cl [Example 12, (4aR,6S)-6-(Methoxymethyl)-2,3,4,4a,5,6-hexahydro-1H-pyrazino[2,1-d][1,5]benzoxazepine-8-carbonitrile hydrochloride]
- Selectivity over 5-HT2B (human 5-HT2B receptor): + (from 10 to 30)
- CLint scaled at 0.5 μM [1, 2]: 83.3 to 833 mL/min/kg
- EC50 (5-HT2C receptor; [3]): 20 to 200 nM
- Emax (5-HT2C receptor): > 70%
- Selectivity over 5-HT2A (human 5-HT2A receptor): +++ (>100)

SMILES: COC[C@@H]1C[C@@H]2CNCCN2c2cc(F)cc(C#N)c2O1.Cl [Example 13, (4aR,6S)-10-Fluoro-6-(methoxymethyl)-2,3,4,4a,5,6-hexahydro-1H-pyrazino[2,1-d][1,5]benzoxazepine-8-carbonitrile hydrochloride]
- Selectivity over 5-HT2B (human 5-HT2B receptor): ++ (from >30 to 100)
- CLint scaled at 0.5 μM [1, 2]: < 83.3 mL/min/kg
- EC50 (5-HT2C receptor; [3]): 20 to 200 nM
- Emax (5-HT2C receptor): > 70%
- Selectivity over 5-HT2A (human 5-HT2A receptor): +++ (>100)

SMILES: COC[C@@H]1C[C@@H]2CNCCN2c2c(F)ccc(Cl)c2O1.O=C(O)/C=C/C(=O)O [Example 15, (4aR,6S)-8-Chloro-11-fluoro-6-(methoxymethyl)-2,3,4,4a,5,6-hexahydro-1H-pyrazino[2,1-d][1,5]benzoxazepine; fumaric acid]
- Selectivity over 5-HT2B (human 5-HT2B receptor): +++ (>100)
- CLint scaled at 0.5 μM [1, 2]: < 83.3 mL/min/kg
- EC50 (5-HT2C receptor; [3]): < 20 nM
- Emax (5-HT2C receptor): > 70%
- Selectivity over 5-HT2A (human 5-HT2A receptor): +++ (>100)
